# According to the NIST ThermoML archive (doi:10.1021/je9001416):
# ± gives the expanded uncertainty stated by the source.
# How the values were obtained:
# [1] = refractive index (Na D-line) (dimensionless); xn = mol fraction of the nth substance listed; conditions: 303.15 K, 101 kPa, Liquid, Standard Abbe refractometry
# [2] = xn = mol fraction of the nth substance listed; conditions: 303.15 K, 101 kPa, Liquid
# [3] = excess molar enthalpy (molar enthalpy of mixing); xn = mol fraction of the nth substance listed; conditions: 303.15 K, 101 kPa, Liquid, Flow calorimetry
structure (smiles),measurement,setting,value
"CC(C)CC(C)(C)C [2,2,4-trimethylpentane] + CC(C)OC(C)C",refractive index,[1]; x2 = 0,1.3865 ± 0.00068
same,mass density,[2]; x2 = 0,684.1 ± 0.31 kg/m3
"CC(C)CC(C)(C)C [2,2,4-trimethylpentane] + CCO",refractive index,[1]; x2 = 0,1.3865 ± 0.00068
same,refractive index,[1]; x2 = 0.0498,1.38633 ± 0.00068
same,refractive index,[1]; x2 = 0.0992,1.38632 ± 0.00068
same,refractive index,[1]; x2 = 0.1997,1.38482 ± 0.00068
same,refractive index,[1]; x2 = 0.2998,1.38404 ± 0.00068
same,refractive index,[1]; x2 = 0.4005,1.38109 ± 0.00068
same,refractive index,[1]; x2 = 0.499,1.37746 ± 0.00068
same,refractive index,[1]; x2 = 0.5999,1.37322 ± 0.00068
same,refractive index,[1]; x2 = 0.7,1.36851 ± 0.00068
same,refractive index,[1]; x2 = 0.8001,1.36386 ± 0.00068
same,refractive index,[1]; x2 = 0.8999,1.36145 ± 0.00068
same,refractive index,[1]; x2 = 0.9508,1.35789 ± 0.00068
same,mass density,[2]; x2 = 0,684.1 ± 0.31 kg/m3
same,mass density,[2]; x2 = 0.061,685.45 ± 0.31 kg/m3
same,mass density,[2]; x2 = 0.1201,687.2 ± 0.31 kg/m3
same,mass density,[2]; x2 = 0.2363,691.81 ± 0.3 kg/m3
same,mass density,[2]; x2 = 0.3467,697.27 ± 0.3 kg/m3
same,mass density,[2]; x2 = 0.453,703.74 ± 0.3 kg/m3
same,mass density,[2]; x2 = 0.5525,711.14 ± 0.29 kg/m3
same,mass density,[2]; x2 = 0.6502,720.18 ± 0.28 kg/m3
same,mass density,[2]; x2 = 0.7431,730.88 ± 0.28 kg/m3
same,mass density,[2]; x2 = 0.8322,744.05 ± 0.27 kg/m3
same,mass density,[2]; x2 = 0.9176,760.58 ± 0.25 kg/m3
same,mass density,[2]; x2 = 0.9599,770.78 ± 0.24 kg/m3
CC(C)OC(C)C [diisopropyl ether] + CC(C)CC(C)(C)C,excess molar enthalpy,[3]; x1 = 0.0577,0.039 ± 0.0013 kJ/mol
same,excess molar enthalpy,[3]; x1 = 0.1144,0.0744 ± 0.0019 kJ/mol
same,excess molar enthalpy,[3]; x1 = 0.1702,0.106 ± 0.0026 kJ/mol
same,excess molar enthalpy,[3]; x1 = 0.2252,0.132 ± 0.0031 kJ/mol
same,excess molar enthalpy,[3]; x1 = 0.2793,0.154 ± 0.0036 kJ/mol
same,excess molar enthalpy,[3]; x1 = 0.3326,0.171 ± 0.0039 kJ/mol
same,excess molar enthalpy,[3]; x1 = 0.385,0.185 ± 0.0042 kJ/mol
same,excess molar enthalpy,[3]; x1 = 0.4367,0.193 ± 0.0044 kJ/mol
same,excess molar enthalpy,[3]; x1 = 0.4875,0.197 ± 0.0045 kJ/mol
same,excess molar enthalpy,[3]; x1 = 0.5376,0.198 ± 0.0045 kJ/mol
same,excess molar enthalpy,[3]; x1 = 0.587,0.193 ± 0.0044 kJ/mol
same,excess molar enthalpy,[3]; x1 = 0.6356,0.185 ± 0.0042 kJ/mol
same,excess molar enthalpy,[3]; x1 = 0.6835,0.174 ± 0.004 kJ/mol
same,excess molar enthalpy,[3]; x1 = 0.7307,0.159 ± 0.0037 kJ/mol
same,excess molar enthalpy,[3]; x1 = 0.7772,0.141 ± 0.0033 kJ/mol
same,excess molar enthalpy,[3]; x1 = 0.823,0.119 ± 0.0028 kJ/mol
same,excess molar enthalpy,[3]; x1 = 0.8682,0.0934 ± 0.0023 kJ/mol
same,excess molar enthalpy,[3]; x1 = 0.9128,0.0651 ± 0.0017 kJ/mol
same,excess molar enthalpy,[3]; x1 = 0.9567,0.0332 ± 0.0012 kJ/mol
same,refractive index,[1]; x1 = 0.0614,1.38505 ± 0.00068
same,refractive index,[1]; x1 = 0.1204,1.38372 ± 0.00068
same,refractive index,[1]; x1 = 0.2365,1.38115 ± 0.00068
same,refractive index,[1]; x1 = 0.3486,1.37862 ± 0.00068
same,refractive index,[1]; x1 = 0.4525,1.37619 ± 0.00068
same,refractive index,[1]; x1 = 0.5542,1.37383 ± 0.00068
same,refractive index,[1]; x1 = 0.6497,1.37172 ± 0.00068
same,refractive index,[1]; x1 = 0.7437,1.36963 ± 0.00068
same,refractive index,[1]; x1 = 0.8322,1.36774 ± 0.00068
same,refractive index,[1]; x1 = 0.9187,1.36596 ± 0.00068
same,refractive index,[1]; x1 = 0.9598,1.36512 ± 0.00068
same,refractive index,[1]; x1 = 1,1.36425 ± 0.00068
same,mass density,[2]; x1 = 0.0614,685.5 ± 0.31 kg/m3
same,mass density,[2]; x1 = 0.1204,686.92 ± 0.31 kg/m3
same,mass density,[2]; x1 = 0.2365,689.82 ± 0.31 kg/m3
same,mass density,[2]; x1 = 0.3486,692.78 ± 0.3 kg/m3
same,mass density,[2]; x1 = 0.4525,695.6 ± 0.3 kg/m3
same,mass density,[2]; x1 = 0.5542,698.54 ± 0.3 kg/m3
same,mass density,[2]; x1 = 0.6497,701.45 ± 0.3 kg/m3
same,mass density,[2]; x1 = 0.7437,704.5 ± 0.29 kg/m3
same,mass density,[2]; x1 = 0.8322,707.61 ± 0.29 kg/m3
same,mass density,[2]; x1 = 0.9187,710.76 ± 0.29 kg/m3
same,mass density,[2]; x1 = 0.9598,712.33 ± 0.29 kg/m3
same,mass density,[2]; x1 = 1,713.78 ± 0.29 kg/m3
CC(C)OC(C)C [diisopropyl ether] + CCO,excess molar enthalpy,[3]; x1 = 0.0212,0.01 ± 0.00085 kJ/mol
same,excess molar enthalpy,[3]; x1 = 0.0437,0.0219 ± 0.00097 kJ/mol
same,excess molar enthalpy,[3]; x1 = 0.0676,0.0377 ± 0.0012 kJ/mol
same,excess molar enthalpy,[3]; x1 = 0.0931,0.0571 ± 0.0016 kJ/mol
same,excess molar enthalpy,[3]; x1 = 0.1204,0.0793 ± 0.002 kJ/mol
same,excess molar enthalpy,[3]; x1 = 0.1497,0.105 ± 0.0026 kJ/mol
same,excess molar enthalpy,[3]; x1 = 0.1811,0.134 ± 0.0032 kJ/mol
same,excess molar enthalpy,[3]; x1 = 0.215,0.167 ± 0.0038 kJ/mol
same,excess molar enthalpy,[3]; x1 = 0.2516,0.202 ± 0.0046 kJ/mol
same,excess molar enthalpy,[3]; x1 = 0.2912,0.24 ± 0.0054 kJ/mol
same,excess molar enthalpy,[3]; x1 = 0.3343,0.277 ± 0.0061 kJ/mol
same,excess molar enthalpy,[3]; x1 = 0.3813,0.318 ± 0.007 kJ/mol
same,excess molar enthalpy,[3]; x1 = 0.4328,0.36 ± 0.0079 kJ/mol
same,excess molar enthalpy,[3]; x1 = 0.4894,0.401 ± 0.0088 kJ/mol
same,excess molar enthalpy,[3]; x1 = 0.5521,0.434 ± 0.0095 kJ/mol
same,excess molar enthalpy,[3]; x1 = 0.6217,0.46 ± 0.01 kJ/mol
same,excess molar enthalpy,[3]; x1 = 0.6995,0.471 ± 0.01 kJ/mol
same,excess molar enthalpy,[3]; x1 = 0.7871,0.441 ± 0.0096 kJ/mol
same,excess molar enthalpy,[3]; x1 = 0.8864,0.327 ± 0.0072 kJ/mol
same,refractive index,[1]; x1 = 0.0495,1.35854 ± 0.00068
same,refractive index,[1]; x1 = 0.0994,1.35989 ± 0.00068
same,refractive index,[1]; x1 = 0.2002,1.36147 ± 0.00068
same,refractive index,[1]; x1 = 0.2997,1.36232 ± 0.00068
same,refractive index,[1]; x1 = 0.4003,1.36325 ± 0.00068
same,refractive index,[1]; x1 = 0.5012,1.36309 ± 0.00068
same,refractive index,[1]; x1 = 0.6012,1.36285 ± 0.00068
same,refractive index,[1]; x1 = 0.7018,1.36225 ± 0.00068
same,refractive index,[1]; x1 = 0.804,1.36246 ± 0.00068
same,refractive index,[1]; x1 = 0.8996,1.36213 ± 0.00068
same,refractive index,[1]; x1 = 0.9505,1.36303 ± 0.00068
same,refractive index,[1]; x1 = 1,1.36425 ± 0.00068
same,mass density,[2]; x1 = 0.0495,776.55 ± 0.24 kg/m3
same,mass density,[2]; x1 = 0.0994,771.45 ± 0.24 kg/m3
same,mass density,[2]; x1 = 0.2002,762.41 ± 0.25 kg/m3
same,mass density,[2]; x1 = 0.2997,754.04 ± 0.26 kg/m3
same,mass density,[2]; x1 = 0.4003,746.63 ± 0.26 kg/m3
same,mass density,[2]; x1 = 0.5012,740.01 ± 0.27 kg/m3
same,mass density,[2]; x1 = 0.6012,734.1 ± 0.27 kg/m3
same,mass density,[2]; x1 = 0.7018,728.75 ± 0.28 kg/m3
same,mass density,[2]; x1 = 0.804,723.6 ± 0.28 kg/m3
same,mass density,[2]; x1 = 0.8996,718.96 ± 0.28 kg/m3
same,mass density,[2]; x1 = 0.9505,716.37 ± 0.29 kg/m3
same,mass density,[2]; x1 = 1,713.78 ± 0.29 kg/m3
CCO [ethanol] + CC(C)CC(C)(C)C,refractive index,[1]; x1 = 1,1.35733 ± 0.00068
same,mass density,[2]; x1 = 1,781.99 ± 0.23 kg/m3
CCO [ethanol] + CC(C)OC(C)C,refractive index,[1]; x2 = 0,1.35733 ± 0.00068
same,mass density,[2]; x2 = 0,781.99 ± 0.23 kg/m3
